Results as given in PubChem BioAssay (NCI).
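Dose response: 5 concentrations. Exposure: 48 h. Format: 96-well plates. Endpoint: linear interpolation; highest concentration if not reached. The concentration for 50% growth inhibition is given as GI50. TGI is the concentration that stops growth completely.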

Key:
Assay in all cases: DTP human tumour cell line panel, 48 h
SK-OV-3 ovarian = tested on: SK-OV-3 ovarian
NCI-H460 lung = tested on: NCI-H460 lung
K-562 leukemia = tested on: K-562 leukemia
HCT-15 colon = tested on: HCT-15 colon
M14 melanoma = tested on: M14 melanoma
RPMI-8226 leukemia = tested on: RPMI-8226 leukemia
SNB-75 CNS = tested on: SNB-75 CNS
CAKI-1 renal = tested on: CAKI-1 renal
HS 578T breast = tested on: HS 578T breast
NCI-H522 lung = tested on: NCI-H522 lung
SK-MEL-5 melanoma = tested on: SK-MEL-5 melanoma
HOP-92 NSCLC = tested on: HOP-92 NSCLC
T-47D breast = tested on: T-47D breast
IGROV1 ovarian = tested on: IGROV1 ovarian
MOLT-4 leukemia = tested on: MOLT-4 leukemia
SK-MEL-28 melanoma = tested on: SK-MEL-28 melanoma
COLO 205 colon = tested on: COLO 205 colon
SF-268 CNS = tested on: SF-268 CNS
UACC-257 melanoma = tested on: UACC-257 melanoma
HL-60(TB) leukemia = tested on: HL-60(TB) leukemia
A549 NSCLC = tested on: A549 NSCLC
CCRF-CEM leukemia = tested on: CCRF-CEM leukemia
HT29 colon = tested on: HT29 colon
A498 renal = tested on: A498 renal
DU-145 prostate = tested on: DU-145 prostate
HOP-62 NSCLC = tested on: HOP-62 NSCLC
U251 CNS = tested on: U251 CNS
PC-3 prostate = tested on: PC-3 prostate
MDA-MB-231 breast = tested on: MDA-MB-231 breast
SW-620 colon = tested on: SW-620 colon
KM12 colon = tested on: KM12 colon
OVCAR-8 ovarian = tested on: OVCAR-8 ovarian
MCF7 breast = tested on: MCF7 breast
UACC-62 melanoma = tested on: UACC-62 melanoma
786-0 renal = tested on: 786-0 renal
NCI-H23 lung = tested on: NCI-H23 lung
RXF 393 renal = tested on: RXF 393 renal
BT-549 breast = tested on: BT-549 breast
SNB-19 CNS = tested on: SNB-19 CNS
EKVX NSCLC = tested on: EKVX NSCLC
MDA-MB-435 = tested on: MDA-MB-435
UO-31 renal = tested on: UO-31 renal
OVCAR-4 ovarian = tested on: OVCAR-4 ovarian
HCC-2998 colon = tested on: HCC-2998 colon
SF-295 CNS = tested on: SF-295 CNS
OVCAR-5 ovarian = tested on: OVCAR-5 ovarian
HCT-116 colon = tested on: HCT-116 colon
SF-539 CNS = tested on: SF-539 CNS
NCI/ADR-RES ovarian = tested on: NCI/ADR-RES ovarian
SN12C renal = tested on: SN12C renal
TK-10 renal = tested on: TK-10 renal
SK-MEL-2 melanoma = tested on: SK-MEL-2 melanoma
ACHN renal = tested on: ACHN renal
OVCAR-3 ovarian = tested on: OVCAR-3 ovarian
NCI-H226 lung = tested on: NCI-H226 lung
LOX IMVI melanoma = tested on: LOX IMVI melanoma
MALME-3M melanoma = tested on: MALME-3M melanoma

Compound: Cc1cc2nc3cc(C)c(N)cc3[n+](-c3ccccc3)c2cc1N
- GI50 (SK-OV-3 ovarian): 24.8 µM
- TGI (SK-OV-3 ovarian): > 100 µM
- GI50 (NCI-H460 lung): 3.57 µM
- TGI (NCI-H460 lung): 19.7 µM
- GI50 (K-562 leukemia): 3.39 µM
- TGI (K-562 leukemia): > 100 µM
- GI50 (HCT-15 colon): > 100 µM
- TGI (HCT-15 colon): > 100 µM
- GI50 (M14 melanoma): 21.2 µM
- TGI (M14 melanoma): > 100 µM
- GI50 (RPMI-8226 leukemia): 4.25 µM
- TGI (RPMI-8226 leukemia): > 100 µM
- GI50 (SNB-75 CNS): 2590 nM
- TGI (SNB-75 CNS): > 100 µM
- GI50 (CAKI-1 renal): > 100 µM
- TGI (CAKI-1 renal): > 100 µM
- GI50 (HS 578T breast): 10.6 µM
- TGI (HS 578T breast): > 100 µM
- GI50 (NCI-H522 lung): 3.73 µM
- TGI (NCI-H522 lung): > 41 µM
- GI50 (SK-MEL-5 melanoma): 773 nM
- TGI (SK-MEL-5 melanoma): 5.4 µM
- GI50 (HOP-92 NSCLC): 3.88 µM
- TGI (HOP-92 NSCLC): 27.8 µM
- GI50 (T-47D breast): 1800 nM
- TGI (T-47D breast): 19.9 µM
- GI50 (IGROV1 ovarian): 12.4 µM
- TGI (IGROV1 ovarian): > 100 µM
- GI50 (MOLT-4 leukemia): 6.5 µM
- TGI (MOLT-4 leukemia): > 100 µM
- GI50 (SK-MEL-28 melanoma): 15.2 µM
- TGI (SK-MEL-28 melanoma): 79.3 µM
- GI50 (COLO 205 colon): 2550 nM
- TGI (COLO 205 colon): 14.3 µM
- GI50 (SF-268 CNS): 2230 nM
- TGI (SF-268 CNS): > 100 µM
- GI50 (UACC-257 melanoma): 1850 nM
- TGI (UACC-257 melanoma): 12 µM
- GI50 (HL-60(TB) leukemia): 4.92 µM
- TGI (HL-60(TB) leukemia): > 100 µM
- GI50 (A549 NSCLC): 14.6 µM
- TGI (A549 NSCLC): > 100 µM
- GI50 (CCRF-CEM leukemia): 11.2 µM
- TGI (CCRF-CEM leukemia): > 100 µM
- GI50 (HT29 colon): 7.3 µM
- TGI (HT29 colon): > 100 µM
- GI50 (A498 renal): 54.8 µM
- TGI (A498 renal): > 100 µM
- GI50 (DU-145 prostate): 7.89 µM
- TGI (DU-145 prostate): > 100 µM
- GI50 (HOP-62 NSCLC): 3.7 µM
- TGI (HOP-62 NSCLC): > 100 µM
- GI50 (U251 CNS): 945 nM
- TGI (U251 CNS): > 100 µM
- GI50 (PC-3 prostate): 3.63 µM
- TGI (PC-3 prostate): > 100 µM
- GI50 (MDA-MB-231 breast): 20.5 µM
- TGI (MDA-MB-231 breast): > 100 µM
- GI50 (SW-620 colon): 5.62 µM
- TGI (SW-620 colon): > 45.2 µM
- GI50 (KM12 colon): 2070 nM
- TGI (KM12 colon): 17.6 µM
- GI50 (OVCAR-8 ovarian): 2830 nM
- TGI (OVCAR-8 ovarian): > 100 µM
- GI50 (MCF7 breast): 2480 nM
- TGI (MCF7 breast): > 100 µM
- GI50 (UACC-62 melanoma): 6.19 µM
- TGI (UACC-62 melanoma): 30.7 µM
- GI50 (786-0 renal): 6.26 µM
- TGI (786-0 renal): > 100 µM
- GI50 (NCI-H23 lung): 2770 nM
- TGI (NCI-H23 lung): > 63.5 µM
- GI50 (RXF 393 renal): 17.5 µM
- TGI (RXF 393 renal): > 100 µM
- GI50 (BT-549 breast): 2640 nM
- TGI (BT-549 breast): 18.8 µM
- GI50 (SNB-19 CNS): 2060 nM
- TGI (SNB-19 CNS): > 100 µM
- GI50 (EKVX NSCLC): 2480 nM
- TGI (EKVX NSCLC): > 100 µM
- GI50 (MDA-MB-435): 4.68 µM
- TGI (MDA-MB-435): 67 µM
- GI50 (UO-31 renal): > 100 µM
- TGI (UO-31 renal): > 100 µM
- GI50 (OVCAR-4 ovarian): 3.57 µM
- TGI (OVCAR-4 ovarian): > 100 µM
- GI50 (HCC-2998 colon): 4.05 µM
- TGI (HCC-2998 colon): > 46 µM
- GI50 (SF-295 CNS): 2940 nM
- TGI (SF-295 CNS): > 73.8 µM
- GI50 (OVCAR-5 ovarian): 46.3 µM
- TGI (OVCAR-5 ovarian): > 100 µM
- GI50 (HCT-116 colon): 3.64 µM
- TGI (HCT-116 colon): 41.4 µM
- GI50 (SF-539 CNS): 4.39 µM
- TGI (SF-539 CNS): > 100 µM
- GI50 (NCI/ADR-RES ovarian): > 100 µM
- TGI (NCI/ADR-RES ovarian): > 100 µM
- GI50 (SN12C renal): 1590 nM
- TGI (SN12C renal): > 23 µM
- GI50 (TK-10 renal): 36.6 µM
- TGI (TK-10 renal): > 100 µM
- GI50 (SK-MEL-2 melanoma): 6.74 µM
- TGI (SK-MEL-2 melanoma): 47.1 µM
- GI50 (ACHN renal): > 68.2 µM
- TGI (ACHN renal): > 100 µM
- GI50 (OVCAR-3 ovarian): 2980 nM
- TGI (OVCAR-3 ovarian): > 95.7 µM
- GI50 (NCI-H226 lung): 6.23 µM
- TGI (NCI-H226 lung): > 69.4 µM
- GI50 (LOX IMVI melanoma): 4.78 µM
- TGI (LOX IMVI melanoma): > 100 µM
- GI50 (MALME-3M melanoma): 3.98 µM
- TGI (MALME-3M melanoma): 51.1 µM
